Results on two compounds are retold here after patent US10011629B2, “Nucleoside analogs for treatment of the flaviviridae family of viruses and cancer” (Cocrystal Pharma, Inc., priority 2015, dated 2018).

By EC50 is commonly meant the midpoint of the concentration-response curve. The term CC50 denotes the concentration giving 50% cytotoxicity. As a reminder, the inhibition is how much of the control response was suppressed. The IC50 is the concentration that gives 50% inhibition. In general, EC90 refers to the concentration at which the effect reaches the 90% level.

The target of data set [1] is HCV NS5B RNA polymerase GT 3a WT. Description: NS5B enzyme assay, GT 3a WT. It counts as biochemical. The conditions noted are these: NS5B enzyme GT 3a WT; average of two to three replicates ± SD. How it is done:
The 21-amino-acid C-terminal truncated HCV NS5B RNA polymerase can be cloned from the HCV replicon cells, modified with a six-His-terminal tail, expressed in a prokaryotic expression vector (pQE60; Qiagen), and subsequently purified over a Talon cobalt affinity resin column (Clontech, Palo Alto, Calif.).^1 Purification can be monitored by SDS-PAGE and Western blotting. The resulting purified protein can be dialyzed overnight against 50 mM sodium phosphate (pH 8.0)-300 mM sodium chloride-0.5% Triton X-100-50% glycerol-2 mM dithiothreitol. The dialysate maintains consistent activity for more than 6 months when stored at −20° C. Protein can be quantified with the Coomassie Plus protein assay reagent (Pierce) by using a bovine serum albumin standard from the same supplier.
NS5B RNA polymerase reaction can be studied by monitoring the incorporation of ^32P-labeled UMP into the newly synthesized RNA strand by using minus IRES as the template. […] After the membrane is rinsed with water followed by rinsing with ethanol, the dots can be cut out and the radioactivity counted in a Packard liquid scintillation counter. The amount of product can be calculated on the basis of the total radioactivity in the reaction mixture. The rate of the reaction can be determined from the slope of the time course of product formation. […]

The test system of data set [2] is HepG2 cells. Description: Lactic acid production in HepG2 cells. The class given is cell-based, human. The conditions noted are these: 14-day assay. As for the experimental part:
To measure the effects of the compounds on lactic acid production, HepG2 cells from a stock culture were diluted and plated in 12-well culture plates at 2.5×10^4 cells per well. […] […] The culture medium was then filtered, and the lactic acid content in the medium was determined using a colorimetric lactic acid assay (Sigma-Aldrich). Since lactic acid product can be considered a marker for impaired mitochondrial function, elevated levels of lactic acid production detected in cells grown in the presence of test compounds would indicate a drug-induced cytotoxic effect.

A short description of data set [3]: Cytotoxicity in HCV replicon assay (ΔCt rRNA). The class given is cell-based. The following applies: human. As for the experimental part: (§1) Huh 7 Clone B cells containing HCV Replicon RNA were seeded in a 96-well plate at 5000 cells/well, and the compounds tested at 10 μM in triplicate immediately after seeding. Following five days incubation (37° C., 5% CO2), total cellular RNA was isolated by using versaGene RNA purification kit from Gentra. Replicon RNA and an internal control (TaqMan rRNA control reagents, Applied Biosystems) were amplified in a single step multiplex Real Time RT-PCR Assay. The antiviral effectiveness of the compounds was calculated by subtracting the threshold RT-PCR cycle of the test compound from the threshold RT-PCR cycle of the no-drug control (ΔCt HCV). A ΔCt of 3.3 equals a 1-log reduction (equal to 90% less starting material) in Replicon RNA levels. The cytotoxicity of the compounds was also calculated by using the ΔCt rRNA values. 2′-C-Me-C was used as the positive control. To determine EC90 and IC50 values^2, ΔCt: values were first converted into fraction of starting material^3 and then were used to calculate the % inhibition.

The subject of data set [4] is mitochondrial DNA (COXII gene) in HepG2 cells. Put plainly: Mitochondrial DNA level in HepG2 cells (real-time PCR). As for the experimental part: This assay was used in all studies described in this application that determine the effect of compounds on mitochondrial DNA content. In this assay, low-passage-number HepG2 cells were seeded at 5,000 cells/well in collagen-coated 96-well plates. Test compounds were added to the medium to obtain final concentrations of 0 μM, 0.1 μM, 10 μM and 100 μM. […] The mitochondrial cytochrome c oxidase subunit II (COXII) gene and the ß-actin or rRNA gene were amplified from 5 μl of the eluted nucleic acids using a multiplex Q-PCR protocol with suitable primers and probes for both target and reference amplifications. […] For exon 3 of the ß-actin gene (GenBank accession number E01094) the sense, probe, and antisense primers are 5′-[…]-3′ (SEQ ID NO. 4), 5′-6-[…]-3′ (SEQ ID NO. 5) and 5′-[…]-3′ (SEQ ID NO. 6), respectively. The primers and probes for the rRNA gene are commercially available from Applied Biosystems. […] The arithmetic formula for this approach is given by 2-ΔΔCT, where ΔΔCT is (CT for average target test sample−CT for target control)−(CT for average reference test−CT for reference control) (see Johnson M R, K Wang, J B Smith, M J Heslin, R B Diasio. Quantitation of dihydropyrimidine dehydrogenase expression by real-time reverse transcription polymerase chain reaction. Anal. Biochem. 2000; 278:175-184). A decrease in mitochondrial DNA content in cells grown in the presence of drug indicated mitochondrial toxicity.

Data set [5] concerns Huh-7 cells. Description: Cellular pharmacology in Huh7 cells (intracellular metabolites). The conditions noted are these: Huh-7 cells, 50 μM, 4 hr. As for the experimental part:
Ice-cold 70% methanol was used as the extraction solvent. ddATP (10 nM) was used as the internal standard.

For data set [6], the system named is HCV 1b (Huh 7 Clone B cells containing HCV Replicon RNA). Description: HCV replicon assay. It counts as cell-based. The conditions noted are these: Hepatitis C virus, Huh-7, read-out: EC90 (μM or letter value) or % inhib HCV. As for the experimental part: as §1, with “inhibition. […]” for “inhibition.”
On the technique in general: In antiviral work, replicon cells carry a viral genome segment that copies itself.

Data set [7] relates to nuclear DNA (ß-actin or rRNA gene) in HepG2 cells. Put plainly: Nuclear DNA level in HepG2 cells (real-time PCR). The following applies: Homo sapiens, 336 h, HepG2 cells, 14-day assay. It counts as cell-based, human. As for the experimental part: This assay was used in all studies described in this application that determine the effect of compounds on mitochondrial DNA content. In this assay, low-passage-number HepG2 cells were seeded at 5,000 cells/well in collagen-coated 96-well plates. Test compounds were added to the medium to obtain final concentrations of 0 μM, 0.1 μM, 10 μM and 100 μM. […] The mitochondrial cytochrome c oxidase subunit II (COXII) gene and the ß-actin or rRNA gene were amplified from 5 μl of the eluted nucleic acids using a multiplex Q-PCR protocol with suitable primers and probes for both target and reference amplifications. […] For exon 3 of the ß-actin gene (GenBank accession number E01094) the sense, probe, and antisense primers are 5′-[…]-3′ (SEQ ID NO. 4), 5′-6-[…]-3′ (SEQ ID NO. 5) and 5′-[…]-3′ (SEQ ID NO. 6), respectively. The primers and probes for the rRNA gene are commercially available from Applied Biosystems. […] The comparative CT method uses arithmetic formulas in which the amount of target (COXII gene) is normalized to the amount of an endogenous reference (the B-actin or rRNA gene) and is relative to a calibrator (a control with no drug at day 7). The arithmetic formula for this approach is given by 2-ΔΔCT, where ΔΔCT is (CT for average target test sample−CT for target control)−(CT for average reference test−CT for reference control) (see Johnson M R, K Wang, J B Smith, M J Heslin, R B Diasio. Quantitation of dihydropyrimidine dehydrogenase expression by real-time reverse transcription polymerase chain reaction. Anal. Biochem. 2000; 278:175-184). A decrease in mitochondrial DNA content in cells grown in the presence of drug indicated mitochondrial toxicity.

A short description of data set [8]: Assay for bone marrow cytotoxicity. The conditions noted are these: human, primary bone marrow mononuclear cells; organization LOBP; read-out: Bone marrow toxicity, CC50. The class given is cell-based, human. How it is done:
Primary human bone marrow mononuclear cells can be obtained commercially from Cambrex Bioscience (Walkersville, Md.). CFU-GM assays is carried out using a bilayer soft agar in the presence of 50 units/mL human recombinant granulocyte/macrophage colony-stimulating factor, while BFU-E assays used a […] matrix containing 1 unit/mL erythropoietin (see Sommadossi J P, Carlisle R. Toxicity of 3′-azido-3′-deoxythymidine and 9-(1,3-dihydroxy-2-propoxymethyl) guanine for normal human hepatopoietic progenitor cells in vitro. Antimicrob. Agents Chemother. 1987; 31: 452-454; Sommadossi, J P, Schinazi, R F, Chu, C K, and Xie, M Y. Comparison of cytotoxicity of the (−) and (+) enantiomer of 2′,3′-dideoxy-3′-thiacytidine in normal human bone marrow progenitor cells. Biochem. Pharmacol. 1992; 44:1921-1925). Each experiment can be performed in duplicate in cells from three different donors. AZT is used as a positive control. […] Statistical analysis can be performed with Student's t test for independent non-paired samples.

The mark [9] stands for this setting: Homo sapiens, HepG2, read-out: % inhibition MitDNA.

Read-outs that look alike come from different tables or passages of the source.

On to `C[C@@]1(O)[C@H](O)[C@@H](COP(=O)(O)OP(=O)(O)OP(=O)(O)O)O[C@H]1n1ccc(=O)[nH]c1=O` [2′-Me-UTP], for which, in data set [1], the EC50 came to 1.8 µM.

On to `O=c1ccn([C@@H]2O[C@H](CO)[C@@H](O)[C@@]2(F)Br)c(=O)[nH]1` [Compound 7, 2′-Deoxy-2′-Bromo-2′-Fluoro Uridine], for which the “Lactic acid Production (% of control)” value is listed as 85.0 ± 16.3 % of control in data set [2] (10 μM) and 69.0 ± 13.5 % of control in data set [2] (50 μM). The compound also gave a CC50 at 5 days in data set [3] above 10 µM. The “Summary (mitochondrial toxicity)” value is “not toxic” in data set [4] and “non-toxic up to 10 μM” in data set [4] (human, 14 days). Moreover, the inhibition at 10 µM in data set [4] (setting [9]) is below 1%; in data set [7] (10 μM, read-out: % inhibition nDNA), 4.4%. Further, the inhibition at 50 µM in data set [4] (setting [9]) was 13.5%; in data set [7] (50 μM, read-out: % inhibition nDNA), below 1%. Moreover, the IC50 in data set [4] (Homo sapiens, HepG2, read-out: IC50 MitDNA) was above 50 µM; in data set [7] (read-out: IC50 nDNA) it was above 50 µM. Also, the “MitDNA Content (% of control)” value in data set [4] (human, 14 days, 10 μM) is given as 117 (98-138) % of control; in data set [4] (human, 14 days, 50 μM), 72 (63-83) % of control. The “intracellular 7-DP” value in data set [5] is on record as “BLOQ”. Further, the “intracellular 7-MP” value in data set [5] was “BLOQ”. Besides, the “intracellular 7-TP” value in data set [5] is recorded as “BLOQ”. The “intracellular 9” value in data set [5] is recorded as “BLOQ”. Also, the EC90 in data set [6] is above 10 µM. In data set [8], the CC50 is above 100 µM.
